# From the supplement of paper PMC9663587
# Columns and labels:
# YKL-5-124 = compound: C=CC(=O)Nc1ccc(C(=O)Nc2[nH]nc3c2CN(C(=O)N[C@H](CN(C)C)c2ccccc2)C3(C)C)cc1 [YKL-5-124]; test: increase in dead-cell fraction, 72 h; higher = more death;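 further: breast cancer cell lines in 384-well plates, stained with Hoechst plus LIVE/DEAD far red dye and imaged, cells above an LDR intensity threshold counted dead, Hoechst-negative corpses included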
# BSJ-03-123 = compound: CC(=O)c1c(C)c2cnc(Nc3ccc(N4CCN(CCOCCOCCOCCNC(=O)COc5cccc6c5C(=O)N(C5CCC(=O)NC5=O)C6=O)CC4)cn3)nc2n(C2CCCC2)c1=O [BSJ-03-123]; test: as above
# [1] = compound: CC(=O)c1c(C)c2cnc(Nc3ccc(N4CCNCC4)cn3)nc2n(C2CCCC2)c1=O; test: as above
# [2] = compound: CCN1CCN(Cc2ccc(Nc3ncc(F)c(-c4cc(F)c5nc(C)n(C(C)C)c5c4)n3)nc2)CC1; test: as above
# Neratinib/HKI272 [3] = compound: T1, CCOc1cc2ncc(C#N)c(Nc3ccc(OCc4ccccn4)c(Cl)c3)c2cc1NC(=O)/C=C/CN(C)C [Neratinib/HKI272]; test: as above
# [4] = compound: CCc1cnn2c(NCc3ccc[n+]([O-])c3)cc(N3CCCC[C@H]3CCO)nc12; test: as above
# LEE011/Ribociclib = compound: CN(C)C(=O)c1cc2cnc(Nc3ccc(N4CCNCC4)cn3)nc2n1C1CCCC1 [LEE011/Ribociclib]; test: as above
# THZ531 = compound: CN(C)C/C=C/C(=O)Nc1ccc(C(=O)N2CCC[C@@H](Nc3ncc(Cl)c(-c4c[nH]c5ccccc45)n3)C2)cc1 [THZ531]; test: as above
# THZ1 [5] = compound: T2, CN(C)C/C=C/C(=O)Nc1ccc(C(=O)Nc2cccc(Nc3ncc(Cl)c(-c4c[nH]c5ccccc45)n3)c2)cc1 [THZ1]; test: as above
# Flavopiridol = compound: CN1CC[C@H](c2c(O)cc(O)c3c(=O)cc(-c4ccccc4Cl)oc23)[C@H](O)C1 [Flavopiridol]; test: as above
# Neratinib/HKI272 [6] = compound: T1, Neratinib/HKI272; test: GR value, 72 h; higher = faster growth (1 = untreated, <0 = killing);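 further: breast cancer and non-malignant breast epithelial lines, nine half-log doses, viable cells counted by Hoechst and LIVE/DEAD dye imaging versus time-zero plates and DMSO controls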
# THZ1 [7] = compound: T2, THZ1; test: as above
cell line,measurement,setting,value
HCC38,increase in dead-cell fraction,YKL-5-124; 0.001 µM,0.0525
same,increase in dead-cell fraction,YKL-5-124; 0.003162 µM,0.0845
same,increase in dead-cell fraction,YKL-5-124; 0.01 µM,0.102
same,increase in dead-cell fraction,YKL-5-124; 0.03162 µM,0.109
same,increase in dead-cell fraction,YKL-5-124; 0.1 µM,0.115
same,increase in dead-cell fraction,YKL-5-124; 0.3162 µM,0.184
same,increase in dead-cell fraction,YKL-5-124; 1 µM,0.197
same,increase in dead-cell fraction,YKL-5-124; 3.162 µM,0.147
same,increase in dead-cell fraction,YKL-5-124; 10 µM,0.407
same,increase in dead-cell fraction,BSJ-03-123; 0.001 µM,0.0173
same,increase in dead-cell fraction,BSJ-03-123; 0.003162 µM,0.0254
same,increase in dead-cell fraction,BSJ-03-123; 0.01 µM,0.0387
same,increase in dead-cell fraction,BSJ-03-123; 0.03162 µM,0.0378
same,increase in dead-cell fraction,BSJ-03-123; 0.1 µM,0.0296
same,increase in dead-cell fraction,BSJ-03-123; 0.3162 µM,0.0344
same,increase in dead-cell fraction,BSJ-03-123; 1 µM,0.0408
same,increase in dead-cell fraction,BSJ-03-123; 3.162 µM,0.0384
same,increase in dead-cell fraction,BSJ-03-123; 10 µM,0.172
same,increase in dead-cell fraction,[1]; 0.0003162 µM,0.0028
same,increase in dead-cell fraction,[1]; 0.001 µM,-0.0069
same,increase in dead-cell fraction,[1]; 0.003162 µM,0.0044
same,increase in dead-cell fraction,[1]; 0.01 µM,0.0202
same,increase in dead-cell fraction,[1]; 0.03162 µM,0.0549
same,increase in dead-cell fraction,[1]; 0.1 µM,0.0669
same,increase in dead-cell fraction,[1]; 0.3162 µM,0.0676
same,increase in dead-cell fraction,[1]; 1 µM,0.0915
same,increase in dead-cell fraction,[1]; 3.162 µM,0.0488
same,increase in dead-cell fraction,[2]; 0.001 µM,0.0177
same,increase in dead-cell fraction,[2]; 0.003162 µM,0.0096
same,increase in dead-cell fraction,[2]; 0.01 µM,0.0258
same,increase in dead-cell fraction,[2]; 0.03162 µM,0.0545
same,increase in dead-cell fraction,[2]; 0.1 µM,0.0758
same,increase in dead-cell fraction,[2]; 0.3162 µM,0.0601
same,increase in dead-cell fraction,[2]; 1 µM,0.0699
same,increase in dead-cell fraction,[2]; 3.162 µM,0.0988
same,increase in dead-cell fraction,[2]; 10 µM,0.415
same,increase in dead-cell fraction,Neratinib/HKI272 [3]; 0.0003162 µM,0.0178
same,increase in dead-cell fraction,Neratinib/HKI272 [3]; 0.001 µM,0.006
same,increase in dead-cell fraction,Neratinib/HKI272 [3]; 0.003162 µM,0.0166
same,increase in dead-cell fraction,Neratinib/HKI272 [3]; 0.01 µM,0.0088
same,increase in dead-cell fraction,Neratinib/HKI272 [3]; 0.03162 µM,0.0102
same,increase in dead-cell fraction,Neratinib/HKI272 [3]; 0.1 µM,-0.0035
same,increase in dead-cell fraction,Neratinib/HKI272 [3]; 0.3162 µM,0.0102
same,increase in dead-cell fraction,Neratinib/HKI272 [3]; 1 µM,0.0009
same,increase in dead-cell fraction,Neratinib/HKI272 [3]; 3.162 µM,0.0842
same,increase in dead-cell fraction,[4]; 0.0001 µM,-0.0032
same,increase in dead-cell fraction,[4]; 0.0003162 µM,-0.0125
same,increase in dead-cell fraction,[4]; 0.001 µM,-0.0108
same,increase in dead-cell fraction,[4]; 0.003162 µM,-0.0127
same,increase in dead-cell fraction,[4]; 0.01 µM,0.0353
same,increase in dead-cell fraction,[4]; 0.03162 µM,0.436
same,increase in dead-cell fraction,[4]; 0.1 µM,0.514
same,increase in dead-cell fraction,[4]; 0.3162 µM,0.511
same,increase in dead-cell fraction,[4]; 1 µM,0.536
same,increase in dead-cell fraction,LEE011/Ribociclib; 0.001 µM,-0.0042
same,increase in dead-cell fraction,LEE011/Ribociclib; 0.003162 µM,0.0013
same,increase in dead-cell fraction,LEE011/Ribociclib; 0.01 µM,0.0118
same,increase in dead-cell fraction,LEE011/Ribociclib; 0.03162 µM,0.0031
same,increase in dead-cell fraction,LEE011/Ribociclib; 0.1 µM,0.0263
same,increase in dead-cell fraction,LEE011/Ribociclib; 0.3162 µM,0.0209
same,increase in dead-cell fraction,LEE011/Ribociclib; 1 µM,0.026
same,increase in dead-cell fraction,LEE011/Ribociclib; 3.162 µM,0.0204
same,increase in dead-cell fraction,LEE011/Ribociclib; 10 µM,0.0467
same,increase in dead-cell fraction,THZ531; 0.0001 µM,-0.0063
same,increase in dead-cell fraction,THZ531; 0.0003162 µM,0.0002
same,increase in dead-cell fraction,THZ531; 0.001 µM,0.0018
same,increase in dead-cell fraction,THZ531; 0.003162 µM,0.0016
same,increase in dead-cell fraction,THZ531; 0.01 µM,-0.0096
same,increase in dead-cell fraction,THZ531; 0.03162 µM,0.0087
same,increase in dead-cell fraction,THZ531; 0.1 µM,0.0251
same,increase in dead-cell fraction,THZ531; 0.3162 µM,0.156
same,increase in dead-cell fraction,THZ531; 1 µM,0.327
same,increase in dead-cell fraction,THZ1 [5]; 0.0001 µM,-0.0033
same,increase in dead-cell fraction,THZ1 [5]; 0.0003162 µM,-0.0036
same,increase in dead-cell fraction,THZ1 [5]; 0.001 µM,-0.0076
same,increase in dead-cell fraction,THZ1 [5]; 0.003162 µM,-0.0032
same,increase in dead-cell fraction,THZ1 [5]; 0.01 µM,0.0133
same,increase in dead-cell fraction,THZ1 [5]; 0.03162 µM,0.0431
same,increase in dead-cell fraction,THZ1 [5]; 0.1 µM,0.249
same,increase in dead-cell fraction,THZ1 [5]; 0.3162 µM,0.303
same,increase in dead-cell fraction,THZ1 [5]; 1 µM,0.593
same,increase in dead-cell fraction,Flavopiridol; 0.0001 µM,-0.0026
same,increase in dead-cell fraction,Flavopiridol; 0.0003162 µM,-0.0024
same,increase in dead-cell fraction,Flavopiridol; 0.001 µM,-0.0081
same,increase in dead-cell fraction,Flavopiridol; 0.003162 µM,0.0129
same,increase in dead-cell fraction,Flavopiridol; 0.01 µM,0.0083
same,increase in dead-cell fraction,Flavopiridol; 0.03162 µM,0.0066
same,increase in dead-cell fraction,Flavopiridol; 0.1 µM,0.0013
same,increase in dead-cell fraction,Flavopiridol; 0.3162 µM,0.112
same,increase in dead-cell fraction,Flavopiridol; 1 µM,0.449
same,GR value,Neratinib/HKI272 [6]; 0.0003162 µM,1.02 GR
same,GR value,Neratinib/HKI272 [6]; 0.001 µM,1.03 GR
same,GR value,Neratinib/HKI272 [6]; 0.003162 µM,0.987 GR
same,GR value,Neratinib/HKI272 [6]; 0.01 µM,0.96 GR
same,GR value,Neratinib/HKI272 [6]; 0.03162 µM,0.879 GR
same,GR value,Neratinib/HKI272 [6]; 0.1 µM,0.951 GR
same,GR value,Neratinib/HKI272 [6]; 0.3162 µM,0.823 GR
same,GR value,Neratinib/HKI272 [6]; 1 µM,0.846 GR
same,GR value,Neratinib/HKI272 [6]; 3.162 µM,0.456 GR
same,GR value,THZ1 [7]; 0.0001 µM,1.1 GR
same,GR value,THZ1 [7]; 0.0003162 µM,1.05 GR
same,GR value,THZ1 [7]; 0.001 µM,1.05 GR
same,GR value,THZ1 [7]; 0.003162 µM,0.951 GR
same,GR value,THZ1 [7]; 0.01 µM,0.724 GR
same,GR value,THZ1 [7]; 0.03162 µM,0.452 GR
same,GR value,THZ1 [7]; 0.1 µM,-0.224 GR
same,GR value,THZ1 [7]; 0.3162 µM,-0.367 GR
same,GR value,THZ1 [7]; 1 µM,-0.572 GR
